{"source": "patent US11033539B2", "about": "“Compounds of formulas (VII), (VIII), (IX), (XI), (XII), (XIII), and (XIV) as muscarinic receptor 4(M4) antagonists for treating neurological diseases” (Neurocrine Biosciences, Inc., priority 2015, dated 2021)"}
{"target": "human M4 receptor (Homo sapiens (Human), UniProt P08173)", "sequence (P08173 whole entry)": "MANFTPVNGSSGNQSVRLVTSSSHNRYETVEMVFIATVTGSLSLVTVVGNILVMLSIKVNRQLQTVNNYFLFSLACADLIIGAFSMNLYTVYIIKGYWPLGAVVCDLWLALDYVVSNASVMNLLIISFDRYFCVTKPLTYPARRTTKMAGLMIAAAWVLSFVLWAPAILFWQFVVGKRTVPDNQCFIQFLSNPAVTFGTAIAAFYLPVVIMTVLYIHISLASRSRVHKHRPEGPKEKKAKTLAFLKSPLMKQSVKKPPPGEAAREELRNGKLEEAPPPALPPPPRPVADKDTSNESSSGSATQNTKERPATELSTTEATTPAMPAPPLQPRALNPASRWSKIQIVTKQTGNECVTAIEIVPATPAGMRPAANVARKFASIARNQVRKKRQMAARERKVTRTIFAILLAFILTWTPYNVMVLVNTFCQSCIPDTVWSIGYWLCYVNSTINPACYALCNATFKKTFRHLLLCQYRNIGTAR", "assay": "Radioligand (tritiated N-methylscopolamine) binding assay, M4", "details": "Ki against the M4 receptor; membranes from CHO cells expressing human M4; tritiated N-methylscopolamine 1.5 nM; read-out: Ki", "method_in_brief": "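CHO membranes; 1.5 nM radioligand; 12-point compound dose-response, 10 μM to […]; HEPES/NaCl/MgCl2/EDTA buffer pH 7.4; 90 min, 37 °C. PEI-treated glass fiber filtration, radioactivity counting. Ki from inhibition of binding.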", "units": {"Ki": "nM"}}
{"smiles": "O=C(NCCN1CCC(O)(Cc2ccccc2)CC1)c1ccn2cc(-c3ccc(OC(F)(F)F)cc3)nc2c1", "note": "[9-19, N-[2-(4-benzyl-4-hydroxypiperidin-1-yl)ethyl]-2-[4-(trifluoromethoxy)phenyl]imidazo[1,2-a]pyridine-7-carboxamide]", "Ki": "100 to 1000"}
{"smiles": "C[C@@H]1CN(c2ncc(C#N)cn2)C[C@H](C)N1C(=O)NCCC1CCN(CC23C4C5C6C4C2C6C53)CC1", "note": "(some centres unmarked) [21-13]", "Ki": "10 to 100"}
{"smiles": "O=C(C1CCN(c2ncc(C(F)(F)F)cc2Cl)CC1)N1CCN(C2CCN(Cc3ccccc3)CC2)CC1", "note": "[9-21, 1-(1-benzylpiperidin-4-yl)-4-{1-[3-chloro-5-(trifluoromethyl)pyridin-2-yl]piperidine-4-carbonyl}piperazine]", "Ki": "10 to 100"}
{"smiles": "O=C(OCCC1CCN(Cc2ccccc2)CC1)N1CCN(c2ccc(OC(F)(F)F)cc2)CC1", "note": "[12-1, 2-(1-benzylpiperidin-4-yl)ethyl 4-[4-(trifluoromethoxy)phenyl]piperazine-1-carboxylate]", "Ki": "10 to 100"}
{"smiles": "O=C(NCCC1CCN(Cc2ccccc2)CC1)Nc1ccc(Oc2ccccc2)cc1", "note": "[8-41, 3-[2-(1-benzylpiperidin-4-yl)ethyl]-1-(4-phenoxyphenyl)urea]", "Ki": "100 to 1000"}
{"smiles": "Cc1c(C(=O)NCCC2CCN(Cc3ccccc3)CC2)cnc2cc(-c3ccc(C#N)c(F)c3)nn12", "note": "[18-12]", "Ki": "10 to 100"}
{"smiles": "C[C@@H]1CN(c2cc(F)c(F)c(F)c2)CCN1C(=O)NCCN1CCN(Cc2ccccc2)CC1", "note": "[7-6, (2R)-N-[2-(4-benzylpiperazin-1-yl)ethyl]-2-methyl-4-(3,4,5-trifluorophenyl)piperazine-1-carboxamide]", "Ki": "100 to 1000"}
{"smiles": "C[C@@H]1CN(c2ccc(C#N)s2)CCN1C(=O)NCCC1CCN(Cc2ccccc2)CC1", "note": "[4-44, (2R)-N-[2-(1-benzylpiperidin-4-yl)ethyl]-4-(5-cyanothiophen-2-yl)-2-methylpiperazine-1-carboxamide]", "Ki": "10 to 100"}
{"smiles": "COc1ccccc1CN1CCC(CCNC(=O)N2[C@H](C)CN(c3ncc(C#N)cn3)C[C@@H]2C)CC1", "note": "[6-67, (2R,6S)-4-(5-cyanopyrimidin-2-yl)-N-(2-{1-[(2-methoxyphenyl)-methyl]piperidin-4-yl}ethyl)-2,6-dimethylpiperazine-1-carboxamide]", "Ki": "10 to 100"}
{"smiles": "C[C@@H]1CN(c2cc(F)c(F)c(F)c2)CCN1C(=O)NCCC1CCN(Cc2cccc(F)c2)CC1", "note": "[6-10, (2R)-N-(2-{1-[(3-fluorophenyl)methyl]piperidin-4-yl}ethyl)-2-methyl-4-(3,4,5-trifluorophenyl)piperazine-1-carboxamide]", "Ki": "10 to 100"}
{"smiles": "C[C@@H]1CN(c2ncc(C#N)cn2)CCN1C(=O)NCCC1CCN(Cc2ccccc2)CC1", "note": "[5-13, (2R)-N-[2-(1-benzylpiperidin-4-yl)ethyl]-4-(5-cyanopyrimidin-2-yl)-2-methylpiperazine-1-carboxamide]", "Ki": "10 to 100"}
{"smiles": "N#Cc1cc(N2CCN(C(=O)OCCC3CCN(Cc4ccccc4)CC3)CC2)ccc1F", "note": "[12-10, 2-(1-benzylpiperidin-4-yl)ethyl 4-(3-cyano-4-fluorophenyl)piperazine-1-carboxylate]", "Ki": "100 to 1000"}
{"smiles": "COc1cc(C#N)cc(N2CCN(C(=O)NCCC3CCN(Cc4ccccc4)CC3)[C@H](C)C2)c1", "note": "[4-39, (2R)-N-[2-(1-benzylpiperidin-4-yl)ethyl]-4-(3-cyano-5-methoxyphenyl)-2-methylpiperazine-1-carboxamide]", "Ki": "10 to 100"}
{"smiles": "C[C@@H]1CN(c2ncc(C#N)cn2)C[C@H](C)N1C(=O)NCCC1CCN(Cc2ccc(C#N)cc2)CC1", "note": "[6-45, (2R,6S)-N-(2-{1-[(4-cyanophenyl)methyl]piperidin-4-yl}ethyl)-4-(5-cyanopyrimidin-2-yl)-2,6-dimethylpiperazine-1-carboxamide]", "Ki": "100 to 1000"}
{"smiles": "CN(C(=O)NCCC1CCN(Cc2ccccc2)CC1)C1CCN(c2ccc(C(F)(F)F)cc2)C1", "note": "(centres unmarked) [8-21, 1-[2-(1-benzylpiperidin-4-yl)ethyl]-3-methyl-3-{1-[4-(trifluoromethyl)phenyl]pyrrolidin-3-yl}urea]", "Ki": "100 to 1000"}
{"smiles": "C[C@@H]1CN(c2ncc(C(F)(F)F)cn2)CCN1C(=O)NCCC1CCN(Cc2ccccn2)CC1", "note": "[6-33, (2R)-2-methyl-N-{2-[1-(pyridin-2-ylmethyl)piperidin-4-yl]ethyl}-4-[5-(trifluoromethyl)pyrimidin-2-yl]piperazine-1-carboxamide]", "Ki": "100 to 1000"}
{"smiles": "O=C(NCCC1CCN(Cc2ccccc2)CC1)N1CCN(c2ncccn2)CC1", "note": "[8-29, N-[2-(1-benzylpiperidin-4-yl)ethyl]-4-(pyrimidin-2-yl)piperazine-1-carboxamide]", "Ki": "100 to 1000"}
{"smiles": "Cc1c(C(=O)NCCC2CCN(Cc3ccccc3)CC2)cnc2cc(-c3cccc(F)c3)nn12", "note": "[18-6]", "Ki": "10 to 100"}
{"smiles": "C[C@@H]1CN(c2cc(F)c(F)c(F)c2)CCN1C(=O)NCCC1CCN(Cc2ccc(C#N)cc2F)CC1", "note": "[6-30, (2R)-N-(2-{1-[(4-cyano-2-fluorophenyl)methyl]piperidin-4-yl}ethyl)-2-methyl-4-(3,4,5-trifluorophenyl)piperazine-1-carboxamide]", "Ki": "100 to 1000"}
{"smiles": "C[C@@H]1CN(c2ncc(C#N)cn2)C[C@H](C)N1C(=O)NCCC1CCN(Cc2cccnc2)CC1", "note": "[6-61, (2R,6S)-4-(5-cyanopyrimidin-2-yl)-2,6-dimethyl-N-{2-[1-(pyridin-3-ylmethyl)piperidin-4-yl]ethyl}piperazine-1-carboxamide]", "Ki": "100 to 1000"}
{"smiles": "O=C(NCCC1CCN(Cc2ccccc2)CC1)c1ccn2cc(-c3ccc(OC(F)(F)F)cc3)nc2c1", "note": "[9-25, N-[2-(1-benzylpiperidin-4-yl)ethyl]-2-[4-(trifluoromethoxy)phenyl]imidazo[1,2-a]pyridine-7-carboxamide]", "Ki": "10 to 100"}
{"smiles": "O=C(NCCC1CCN(Cc2ccccc2)CC1)N1CCN(c2cc(F)c(F)c(F)c2)CC1", "note": "[4-74, N-[2-(1-benzylpiperidin-4-yl)ethyl]-4-(3,4,5-trifluorophenyl)piperazine-1-carboxamide]", "Ki": "10 to 100"}
{"smiles": "N#Cc1ccc(-n2cnc(C(=O)NCCC3CCN(Cc4ccccc4)CC3)c2)nc1", "note": "[9-75, N-[2-(1-benzylpiperidin-4-yl)ethyl]-1-(5-cyanopyridin-2-yl)-1H-imidazole-4-carboxamide]", "Ki": "100 to 1000"}
{"smiles": "COC1(C(=O)NCCC2CCN(Cc3ccccc3)CC2)CCN(c2cc(C(F)(F)F)ccn2)CC1", "note": "[10-47, N-[2-(1-benzylpiperidin-4-yl)ethyl]-4-methoxy-1-[4-(trifluoromethyl)pyridin-2-yl]piperidine-4-carboxamide]", "Ki": "10 to 100"}
{"smiles": "Cc1c(C(=O)NCCC2CCN(Cc3ccccc3O)CC2)cnc2cc(-c3ccccc3)nn12", "note": "[19-4]", "Ki": "100 to 1000"}
{"smiles": "COc1cccc(CN2CCC(CCNC(=O)c3ccc(OCc4ccccc4)cc3)CC2)c1O", "note": "[11-9, 4-(benzyloxy)-N-(2-{1-[(2-hydroxy-3-methoxyphenyl)methyl]piperidin-4-yl}ethyl)benzamide]", "Ki": "100 to 1000"}
{"smiles": "Cc1cc(C)nc(N2CCC(C(=O)NCCC3CCN(Cc4ccccc4)CC3)CC2)n1", "note": "[10-74, N-[2-(1-benzylpiperidin-4-yl)ethyl]-1-(4,6-dimethylpyrimidin-2-yl)piperidine-4-carboxamide]", "Ki": "100 to 1000"}
{"smiles": "CC(C)CN1CCC(CCNC(=O)N2[C@H](C)CN(c3ncc(C#N)cn3)C[C@@H]2C)CC1", "note": "[21-6]", "Ki": "100 to 1000"}
{"smiles": "O=C(NCCC1CCN(Cc2ccccc2)CC1)C1CCN(c2cc(C(F)(F)F)ccn2)CC1", "note": "[10-32, N-[2-(1-benzylpiperidin-4-yl)ethyl]-1-[4-(trifluoromethyl)pyridin-2-yl]piperidine-4-carboxamide]", "Ki": "10 to 100"}
